Measured values as given in patent US8846951B2 (AbbVie Inc., priority 2009, dated 2014).
Like-named read-outs stand apart in the source and are kept apart here. Blank lines part the entries; values can stand above or below the compound they belong to.

What was measured:
5HT2C receptors [1] = molecular target: T1, 5HT2C receptors (Homo sapiens, UniProt P28335); assay: Human 5-HT2C functional assay in 1321N1 cells (intracellular calcium, FLIPR); format: cell-based; set-up: expressed in transfected cells; host or cells: 1321N1 cells; details: 5-HT2c agonist activity, maximum calcium response
T1 sequence (P28335 33-458): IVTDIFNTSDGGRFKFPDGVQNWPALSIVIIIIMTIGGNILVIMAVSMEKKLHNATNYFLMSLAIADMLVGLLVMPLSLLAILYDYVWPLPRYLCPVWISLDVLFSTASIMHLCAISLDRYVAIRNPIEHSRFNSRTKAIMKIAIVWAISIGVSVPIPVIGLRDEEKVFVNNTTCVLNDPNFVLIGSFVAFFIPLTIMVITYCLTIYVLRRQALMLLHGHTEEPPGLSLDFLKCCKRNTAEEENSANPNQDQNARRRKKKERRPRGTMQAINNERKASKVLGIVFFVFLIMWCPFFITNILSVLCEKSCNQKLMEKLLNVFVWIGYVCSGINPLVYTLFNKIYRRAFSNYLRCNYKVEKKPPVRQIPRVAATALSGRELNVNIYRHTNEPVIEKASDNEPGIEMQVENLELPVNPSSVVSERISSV
Description: (ii) Human 5-HT2C Functional Assay in 1321N1 Cells
Functional activity was determined by testing the effect of the compounds on intracellular calcium levels in 1321N1 cells stably transfected with the human 5-HT2C receptor. Cells were seeded into 96-well plates at 50,000 cells/well and grown overnight in tissue culture medium (DMEM with Glutamax I (Invitrogen), containing 10% dFCS, 50 μg/mL Gentamicin, 400 μg/mL Geneticin) at 37° C. and 7% CO2. Growth medium was replaced by medium without dFCS for overnight incubation. Cells were loaded with a fluorescent calcium-sensitive dye in the presence of 1% probenicid according to the manufacturer's protocol (Fluo4 AM, Molecular Devices). Serial compound dilutions (final concentrations 10^−10 to 10^−5 M) were added to the cells either alone or in the presence of serotonin (10^−9 M) and the maximum calcium response was determined using a FLIPR instrument (Molecular Devices). Concentration-response curves were fitted using a four-parameter logistic equation (GraphPad Prism). The concentration at which the compound exerts half its maximal effect is named the ‘effective concentration 50’ or ‘EC50’ and is listed in Table 2.

5HT2B receptors = molecular target: T2, 5HT2B receptors (Homo sapiens, UniProt P41595); assay: Human 5-HT2B functional high throughput screening assay in CHO-K1 cells (calcium flux); format: cell-based; details: for EC50: CHO-K1 cells, calcium flux
T2 construct: expressed in transfected cells; host or cells: CHO-K1 cells
Procedure, shortened: (§1)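 FLIPR calcium readout, ex 480/em 530 nm, 25 °C, 3 min post-addition; agonist response normalized to serotonin, 4-parameter fit → EC50, Emax (% serotonin). Cells: frozen CHO-K1 stable lines, serum-free overnight, Ca4 dye + 2.5 mM probenecid, 60 min RT dark.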

5HT2C receptors [2] = molecular target: T1, 5HT2C receptors; assay: Human 5-HT2C functional high throughput screening assay in CHO-K1 cells (calcium flux); format: cell-based; set-up: expressed in transfected cells; host or cells: CHO-K1 cells; details: for EC50: CHO-K1 cells, calcium flux; for Emax: 5-HT2C, maximum functional response as percentage relative to the effect of serotonin
Procedure, shortened: as §1

[3] = molecular target: T3, human serotonin 5-HT2c receptor (Homo sapiens, UniProt P28335); assay: Human 5-HT2C receptor radioligand binding assay (agonist site, [125I]DOI); details: 5-HT2c agonist site; transfected CHO cell membranes; 0.2 nM [125I](±)DOI
T3 construct: expressed in transfected cells; host or cells: CHO cells (membrane homogenates)
T3 sequence (P28335 33-458): T1 sequence (P28335 33-458)
Description: (i) Human 5-HT2C Receptor Radioligand Binding Assay
Affinity of compounds for the agonist site of the […], receptor in transfected CHO cells was determined in a radioligand binding assay essentially as described by Bryant, H. U., et al., Life Sciences (1996) 59(15), 1259-1268.

[4] = 5-HT2B agonist activity, read-out: EC50
[5] = 5-HT2B, maximum functional response as percentage relative to the effect of serotonin
[6] = 5-HT2C agonist activity, read-out: EC50

T2 sequence (P41595 whole entry): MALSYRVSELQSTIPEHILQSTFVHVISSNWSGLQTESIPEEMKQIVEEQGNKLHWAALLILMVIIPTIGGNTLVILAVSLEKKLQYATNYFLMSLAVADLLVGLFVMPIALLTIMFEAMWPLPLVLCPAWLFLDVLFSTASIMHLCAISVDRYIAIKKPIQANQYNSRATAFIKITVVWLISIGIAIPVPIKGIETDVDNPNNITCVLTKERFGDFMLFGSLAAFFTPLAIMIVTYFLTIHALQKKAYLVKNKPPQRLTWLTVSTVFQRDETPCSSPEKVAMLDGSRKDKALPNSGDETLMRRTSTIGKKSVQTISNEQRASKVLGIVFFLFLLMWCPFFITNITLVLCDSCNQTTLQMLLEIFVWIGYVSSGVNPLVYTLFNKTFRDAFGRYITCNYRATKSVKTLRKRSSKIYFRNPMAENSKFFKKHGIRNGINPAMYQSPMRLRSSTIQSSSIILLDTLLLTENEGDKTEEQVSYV

EC50 (5HT2C receptors [1]): 29 nM
EC50 (5HT2B receptors; [4]): > 10000 nM
Emax (5HT2B receptors; [5]): inactive
EC50 (5HT2C receptors [2]; [6]): 30 nM
Emax (5HT2C receptors [2]; CHO-K1, read-out: Emax): 110%
Ki [3]: 31 nM
Compound: O=C1NC[C@@H]2CN(Cc3ccccc3)C[C@H]2c2cccc(F)c21 (relative stereo) [Example 58, Trans-2-benzyl-7-fluoro-1,2,3,3a,4,5-hexahydrobenzo[e]pyrrolo[3,4-c]azepin-6(10bH)-one]

EC50 (5HT2C receptors [1]): 20.2 nM
EC50 (5HT2B receptors; [4]): > 10000 nM
Emax (5HT2B receptors; [5]): inactive
EC50 (5HT2C receptors [2]; [6]): 20 nM
Emax (5HT2C receptors [2]; CHO-K1, read-out: Emax): 120%
Ki [3]: 53 nM
Compound: O=C1NC[C@@H]2CN(Cc3ccccc3)C[C@H]2c2c(F)cccc21 (relative stereo) [Example 65, Trans-2-benzyl-10-fluoro-1,2,3,3a,4,5-hexahydrobenzo[c]pyrrolo[3,4-e]azepin-6(10bH)-one]

Compound: (3aR,10bS)-1,2,3,3a,4,5-Hexahydrobenzo[e]pyrrolo[3,4-c]azepin-6(10bH)-one [Example 47]
EC50 (5HT2C receptors [1]): 0.575 nM
EC50 (5HT2B receptors; [4]): 20 nM
Emax (5HT2B receptors; [5]): 100%
EC50 (5HT2C receptors [2]; [6]): 0.3 nM
Emax (5HT2C receptors [2]): >120%
Ki [3]: 6.1 nM

Compound: O=C1NC[C@H]2CN(Cc3ccccc3)C[C@@H]2c2ccc(F)cc21 [Example 61, (3aS,10bS)-2-Benzyl-8-fluoro-1,2,3,3a,4,5-hexahydrobenzo[e]pyrrolo[3,4-e]azepin-6(10bH)-one]
EC50 (5HT2C receptors [1]): 3.2 nM
Emax (5HT2B receptors; CHO-K1): 10%
EC50 (5HT2B receptors; EC50, 5-HT2B agonist activity): 200 nM
Emax (5HT2C receptors [2]; CHO-K1): > 120%
EC50 (5HT2C receptors [2]; EC50, 5-HT2C agonist activity): 5.82 nM
Ki [3]: 6.4 nM

Compound: O=C1NC[C@@H]2CN(Cc3ccccc3)C[C@H]2c2cc(Cl)c(Cl)cc21 (relative stereo) [Example 56, Trans-2-benzyl-8,9-dichloro-1,2,3,3a,4,5-hexahydrobenzo[c]pyrrolo[3,4-e]azepin-6(10bH)-one]
EC50 (5HT2C receptors [1]): 15.3 nM
Ki [3]: 70 nM

EC50 (5HT2C receptors [1]): 3.95 nM
EC50 (5HT2B receptors; [4]): 70 nM
Emax (5HT2B receptors; CHO-K1, 5-HT2B, maximum functional response as percentage relative to the effect of serotonin, read-out: Emax): 55%
EC50 (5HT2C receptors [2]; [6]): 1 nM
Emax (5HT2C receptors [2]; CHO-K1, read-out: Emax): > 120%
Ki [3]: 14 nM
Compound: COc1cccc(CN2C[C@H]3CNC(=O)c4ccccc4[C@@H]3C2)c1 (relative stereo) [Example 28, Trans-2-(3-methoxybenzyl)-1,2,3,3a,4,5-hexahydrobenzo[c]pyrrolo[3,4-e]azepin-6(10bH)-one]

Compound: O=C1NC[C@@H]2CNC[C@H]2c2cc(Cl)ccc21 (relative stereo) [Example 52, Trans-9-chloro-1,2,3,3a,4,5-hexahydrobenzo[e]pyrrolo[3,4-c]azepin-6(10bH)-one]
EC50 (5HT2C receptors [1]): 158 nM
Ki [3]: 860 nM

EC50 (5HT2C receptors [1]): 1.76 nM
Ki [3]: 36 nM
Compound: O=C1NC[C@@H]2CN(Cc3cc(Cl)ccc3F)C[C@H]2c2ccccc21 (relative stereo) [Example 70, Trans-2-(5-chloro-2-fluorobenzyl)-1,2,3,3a,4,5-hexahydrobenzo[e]pyrrolo[3,4-c]azepin-6(10bH)-one]

EC50 (5HT2C receptors [1]): 3.97 nM
EC50 (5HT2B receptors; [4]): > 10000 nM
Emax (5HT2B receptors; [5]): inactive
EC50 (5HT2C receptors [2]; [6]): 7 nM
Emax (5HT2C receptors [2]; CHO-K1, read-out: Emax): 120%
Ki [3]: 10 nM
Compound: COC(=O)c1cccc(CN2C[C@H]3CNC(=O)c4ccccc4[C@@H]3C2)c1 (relative stereo) [Example 68, Trans-methyl-3-((6-oxo-1,3a,4,5,6,10b-hexahydrobenzo[e]pyrrolo[3,4-c]azepin-2(3H)-yl)methyl)benzoate]

Compound: CN1C[C@H]2CNC(=O)c3ccccc3[C@@H]2C1 (relative stereo) [Example 69, Trans-2-methyl-1,2,3,3a,4,5-hexahydrobenzo[c]pyrrolo[3,4-e]azepin-6(10bH)-one]
EC50 (5HT2C receptors [1]): 8.78 nM
Emax (5HT2B receptors; CHO-K1): 70%
EC50 (5HT2B receptors; EC50, 5-HT2B agonist activity): 500 nM
Emax (5HT2C receptors [2]; CHO-K1): 120%
EC50 (5HT2C receptors [2]; EC50, 5-HT2C agonist activity): 9 nM
Ki [3]: 48 nM

EC50 (5HT2C receptors [1]): 115 nM
EC50 (5HT2B receptors; [4]): > 10000 nM
Emax (5HT2B receptors; [5]): inactive
EC50 (5HT2C receptors [2]; [6]): 100 nM
Emax (5HT2C receptors [2]; CHO-K1, read-out: Emax): 120%
Ki [3]: 210 nM
Compound: O=C1NC[C@@H]2CN(Cc3ccccc3)C[C@@H]2c2cccc(F)c21 (relative stereo) [Example 59, Cis-2-benzyl-7-fluoro-1,2,3,3a,4,5-hexahydrobenzo[c]pyrrolo[3,4-e]azepin-6(10bH)-one]

EC50 (5HT2C receptors [1]): 84 nM
Ki [3]: 110 nM
Compound: O=C1NC[C@@H]2CN(Cc3ccccc3)C[C@H]2c2cc(Cl)ccc21 (relative stereo) [Example 51, Trans-2-benzyl-9-chloro-1,2,3,3a,4,5-hexahydrobenzo[e]pyrrolo[3,4-c]azepin-6(10bH)-one]

Compound: O=C1NC[C@@H]2CN(Cc3ccccc3)C[C@H]2c2ccc(Cl)cc21 (relative stereo) [Example 45, Trans-2-benzyl-8-chloro-1,2,3,3a,4,5-hexahydrobenzo[c]pyrrolo[3,4-e]azepin-6(10bH)-one]
EC50 (5HT2C receptors [1]): 5.95 nM
Ki [3]: 6.9 nM

Compound: O=C1NC[C@@H]2CN(Cc3ccccc3)C[C@H]2c2ccc(F)cc21 (relative stereo) [Example 55, Trans-2-benzyl-8-fluoro-1,2,3,3a,4,5-hexahydrobenzo[e]pyrrolo[3,4-c]azepin-6(10bH)-one]
EC50 (5HT2C receptors [1]): 10.6 nM
Emax (5HT2B receptors; [5]): inactive
EC50 (5HT2B receptors; EC50, 5-HT2B agonist activity): > 10000 nM
Emax (5HT2C receptors [2]; CHO-K1): 120%
EC50 (5HT2C receptors [2]; EC50, 5-HT2C agonist activity): 40 nM
Ki [3]: 9.1 nM

EC50 (5HT2C receptors [1]): 6.24 nM
Ki [3]: 8.6 nM
Compound: COc1cc(CN2C[C@H]3CNC(=O)c4ccccc4[C@@H]3C2)cc(OC)c1 (relative stereo) [Example 38, Trans-2-(3,5-dimethoxybenzyl)-1,2,3,3a,4,5-hexahydrobenzo[c]pyrrolo[3,4-e]azepin-6(10bH)-one]

EC50 (5HT2C receptors [1]): 14.1 nM
Ki [3]: 22 nM
Compound: O=C1NC[C@@H]2CN(Cc3ccccc3)C[C@H]2c2c(Cl)cccc21 (relative stereo) [Example 48, Trans-2-benzyl-10-chloro-1,2,3,3a,4,5-hexahydrobenzo[e]pyrrolo[3,4-c]azepin-6(10bH)-one]

EC50 (5HT2C receptors [1]): 2.11 nM
Ki [3]: 3.4 nM
Compound: O=C1NC[C@@H]2CN(Cc3cc(Cl)cc(Cl)c3)C[C@H]2c2ccccc21 (relative stereo) [Example 30, Trans-2-(3,5-dichlorobenzyl)-1,2,3,3a,4,5-hexahydrobenzo[c]pyrrolo[3,4-e]azepin-6(10bH)-one]

EC50 (5HT2C receptors [1]): 27 nM
Ki [3]: 70 nM
Compound: COc1ccccc1CN1C[C@H]2CNC(=O)c3ccccc3[C@@H]2C1 (relative stereo) [Example 29, Trans-2-(2-methoxybenzyl)-1,2,3,3a,4,5-hexahydrobenzo[c]pyrrolo[3,4-e]azepin-6(10bH)-one]

Compound: O=C1NC[C@@H]2CNC[C@H]2c2cccc(F)c21 (single isomer, unassigned) [Example 60, Trans-7-fluoro-1,2,3,3a,4,5-hexahydrobenzo[c]pyrrolo[3,4-e]azepin-6(10bH)-one]
EC50 (5HT2C receptors [1]): 7.65 nM
Emax (5HT2B receptors; CHO-K1): 80%
EC50 (5HT2B receptors; EC50, 5-HT2B agonist activity): 900 nM
Emax (5HT2C receptors [2]; CHO-K1): 120%
EC50 (5HT2C receptors [2]; EC50, 5-HT2C agonist activity): 7 nM
Ki [3]: 44 nM

Compound: O=C1NC[C@@H]2CNC[C@H]2c2ccc(F)cc21 (relative stereo) [Example 57, Trans-8-fluoro-1,2,3,3a,4,5-hexahydrobenzo[c]pyrrolo[3,4-e]azepin-6(10bH)-one]
EC50 (5HT2C receptors [1]): 7.67 nM
Emax (5HT2B receptors; CHO-K1): 100%
EC50 (5HT2B receptors; EC50, 5-HT2B agonist activity): 700 nM
Emax (5HT2C receptors [2]; CHO-K1): 120%
EC50 (5HT2C receptors [2]; EC50, 5-HT2C agonist activity): 6 nM
Ki [3]: 26 nM

Compound: O=C1NC[C@@H]2CNC[C@H]2c2c(Cl)cccc21 (relative stereo) [Example 49]
EC50 (5HT2C receptors [1]): 48.3 nM
Ki [3]: 170 nM
